{"source": "patent US20230045390A1", "about": "“PLASMODIUM VIVAX MALE GAMETE FUSION PROTEIN PVHAP2 AND THE PUTATIVE PROLIFERATING-CELL NUCLEOLAR ANTIGEN P120 AS RELAPSE BIOMARKERS” (Seattle Children's Hospital dba Seattle Children's Research …, priority 2021, published 2023)", "key": {"[1]": {"test_system": "P. vivax liver stages in PHH", "assay": "P. vivax infection of primary human hepatocytes (PHH), quantification of extraerythrocytic forms by IFA", "format": "cell-based, Plasmodium vivax", "conditions": "0.1 μM after day 3 post-infection, fixed day 6", "description": "Primary human hepatocytes (BioIVT) were plated and infected in chamber slides as previously described (Schafer C, et al. A Humanized Mouse Model for Plasmodium vivax to Test Interventions that Block Liver Stage to Blood Stage Transition and Blood Stage Infection. […] 23, 101381 (2020)). Briefly, 8-well PermanoxTM slides (LabTek) were coated with collagen (Advanced Biomatrix) and seeded with 1.25×10^5 viable cells using InVitroGROTM CP medium (BioIVT) supplemented with 2% FBS without antibiotics (plating media). Four hours later, plating media was replaced with InVitroGROTM CP containing antibiotics (1× Torpedo Antibiotic Mix with 10 μM gentamycin) without serum (maintenance media). Two days after plating, cells were infected with freshly dissected P. vivax salivary gland sporozoites (MOI=1.0) for four hours in maintenance media supplemented with 20% FBS. Cells were washed once, and maintenance media replaced daily thereafter and stored at -80° C. for EV analysis. After day 3 post-infection, cultures were treated with 0.1 μM MMV048 or 0.1% DMSO as vehicle (FIG. 5). On day 6-post infection, cells were fixed and analyzed by IFA. Total extraerythrocytic forms (EEF) and schizont/hypnozoite numbers and ratio were quantified. IFA analysis of PHH and liver sections of FRG huHep mice was performed as described (Schafer C, et al. A Humanized Mouse Model for Plasmodium vivax to Test Interventions that Block Liver Stage to Blood Stage Transition and Blood Stage Infection. iScience 23, 101381 (2020); Schafer C, et al. A recombinant antibody against Plasmodium vivax UIS4 for distinguishing replicating from dormant liver stages. […] 17, 370 (2018)). Briefly, culture cells and liver tissue were fixed in 4% paraformaldehyde in TBS for 10 min (PHH) and 16 hours (liver sections). PHH were blocked and permeabilized in TBS with 2% bovine serum albumin and 0.2% Triton-X-100 (PBS/BSA/Triton). FRG huHep fixed livers were sectioned in 50 μm thick sections in a vibratome. […]"}, "P. vivax": {"test_system": "P. vivax", "assay": "18S qRT-PCR analysis of liver parasite load in infected FRG huHep mice", "format": "in vivo, Plasmodium vivax", "conditions": "for parasite load, 18S rRNA in liver tissue by RT-qPCR: compared to DMSO", "description": "(§1) All animal procedures were conducted in accordance with and approved by the Center for Infectious Disease Research Institutional Animal Care and Use Committee (IACUC). The Center for Infectious Disease Research IACUC adheres to the NIH Office of Laboratory Animal Welfare standards (OLAW welfare assurance #A3640-01). Female FRG KO mice engrafted with human hepatocytes (FRG KO huHep) were purchased from Yecuris Corporation (Oregon, USA). P. vivax infections of FRG huHEP were performed as previously described. Briefly, mice were divided in five experimental groups. Group 1 (3 mice) was not infected. Group 2 (6 mice) was inoculated with P. vivax sporozoites by the bite of 20 mosquitos and euthanized after 8 days post-infection (dpi). Group 3 (6 mice) was infected by intravenous injection of P. vivax sporozoites (0.8 million) and euthanized after 8 dpi. Group 4 (6 mice) was infected by intravenous injection of P. vivax sporozoites (1 million sporozoites) and euthanized after 21 dpi. Group 5 (3 mice) was infected by intravenous injection (1 million sporozoites) and treated with Tafenoquine (10 mg/kg) at 14 dpi and euthanized at 21 dpi. MMV048 (Novartis) mice treatment (30 mg/kg) was performed as follows: three mice from Groups 2 and 3 received intravenous injections of the drug at 4 dpi; three mice from Group 4 received intravenous injections of the drug at 17 dpi. Three DMSO-treated animals were used as controls in groups 2, 3 and 4. After euthanasia, livers were extracted for characterization by IFA and RT-qPCR and whole blood was extracted by cardiac venipuncture for plasma collection as previously described (Schafer C, et al. A recombinant antibody against Plasmodium vivax UIS4 for distinguishing replicating from dormant liver stages. Malar J 17, 370 (2018)).\nLiver parasite load from infected FRG huHEP mice was quantified as previously described (Flannery E L, et al. Assessing drug efficacy against Plasmodium falciparum liver stages in vivo. JCI Insight 3, (2018))."}, "P. vivax liver stages": {"test_system": "P. vivax liver stages", "assay": "P. vivax infection of FRG huHep mice, quantification of liver stages by IFA", "format": "in vivo, Plasmodium vivax", "description": "as §1, with “Malar J” left out, “(2018)). IFA analysis of PHH and liver sections of FRG huHep mice was performed as described (Schafer C, et al. A Humanized Mouse Model for Plasmodium vivax to Test Interventions that Block Liver Stage to Blood Stage Transition and Blood Stage Infection. iScience 23, 101381 (2020); Schafer C, et al. A recombinant antibody against Plasmodium vivax UIS4 for distinguishing replicating from dormant liver stages. […] 17, 370 (2018)). Briefly, culture cells and liver tissue were fixed in 4% paraformaldehyde in TBS for 10 min (PHH) and 16 hours (liver sections). PHH were blocked and permeabilized in TBS with 2% bovine serum albumin and 0.2% Triton-X-100 (PBS/BSA/Triton). FRG huHep fixed livers were sectioned in 50 μm thick sections in a vibratome. Tissue sections were then permeabilized in 0.25% Triton X-100 and 3% H2O2 for 30 min followed by a blocking step in 5% skim milk in TBS for 1 hour at RT. […]” for “(2018)).”"}, "[2]": {"test_system": "P. cynomolgi liver hypnozoites", "conditions": "radical cure mode, both in vitro and in vivo; cited from earlier work"}, "Plasmodium spp.": {"test_system": "Plasmodium spp.", "conditions": "preclinical studies; cited from earlier work"}, "[3]": {"conditions": "group 4: intravenous infection, treated at 17 dpi, livers collected 21 dpi"}, "[4]": {"conditions": "group 5: 10 mg/kg at 14 dpi, euthanized 21 dpi"}}, "note": "Entries after “also recorded” stand apart in the source; their conditions may differ."}
{"smiles": "CS(=O)(=O)c1ccc(-c2cnc(N)c(-c3ccc(C(F)(F)F)nc3)c2)cc1", "note": "[MMV048]", "values": [{"measurement": "hypnozoites by IFA", "setting": "[1]", "value": "resistance of hypnozoites to the drug"}, {"measurement": "schizonts by IFA", "setting": "[1]; compared to DMSO", "value": "no schizonts were observed; also recorded: removed schizonts"}, {"measurement": "total extraerythrocytic forms (EEF) by IFA", "setting": "[1]; compared to DMSO-treated cells", "value": "significant reduction"}, {"measurement": "parasite load, 18S rRNA in liver tissue by RT-qPCR", "setting": "P. vivax; day 21, group 4", "value": "no differences"}, {"measurement": "parasite load, 18S rRNA in liver tissue by RT-qPCR", "setting": "P. vivax; mosquito bite and intravenous infection, treated at 4 dpi, analyzed 8 dpi", "value": "significantly reduced parasite load"}, {"measurement": "number of schizonts in liver by IFA", "setting": "P. vivax liver stages; 30 mg/kg intravenous, groups 2, 3 and 4, compared to control mice", "value": "significantly lower number of schizonts; also recorded: removed schizonts"}, {"measurement": "hypnozoites in liver by IFA", "setting": "P. vivax liver stages; [3]", "value": "only one hypnozoite was detected"}, {"measurement": "schizonts in liver by IFA", "setting": "P. vivax liver stages; [3]", "value": "no schizonts"}, {"measurement": "activity against liver hypnozoites", "setting": "[2]", "value": "ineffective"}, {"measurement": "activity against asexual, transmission and liver stages", "setting": "Plasmodium spp.", "value": "potent activity"}]}
{"smiles": "COc1cc(C)c2c(Oc3cccc(C(F)(F)F)c3)c(OC)cc(NC(C)CCCN)c2n1", "note": "(stereo not drawn) [Tafenoquine]", "values": [{"measurement": "parasite 18S rRNA in liver by RT-qPCR", "setting": "P. vivax; [4]", "value": "presence of parasite 18S rRNA"}, {"measurement": "liver forms by IFA", "setting": "P. vivax liver stages; [4]", "value": "no liver forms were quantified"}]}
